Assay results: ChEMBL document CHEMBL2146447, “Synthesis and antimicrobial activity of amido linked pyrrolyl and pyrazolyl-oxazoles, thiazoles and imidazoles” (2011)
Active and inactive are the calls of the source. The calls are words filed in the database; no cut-off is given here.

Experiments:
Format in all cases: functional
Staphylococcus aureus [1] = assay: Antibacterial activity against Staphylococcus aureus assessed at 50 ug after 24 hrs by agar well diffusion method; details: for zone of inhibition at 50 µg/disc: read-out: DIZ
Staphylococcus aureus [2] = assay: Antibacterial activity against Staphylococcus aureus at 100 ug after 24 hrs by agar well diffusion method; details: for zone of inhibition at 100 µg/disc: read-out: DIZ
Bacillus subtilis [3] = assay: Antibacterial activity against Bacillus subtilis at 50 ug after 24 hrs by agar well diffusion method; details: for zone of inhibition at 50 µg/disc: read-out: DIZ
Bacillus subtilis [4] = assay: Antibacterial activity against Bacillus subtilis at 100 ug after 24 hrs by agar well diffusion method; details: for zone of inhibition at 100 µg/disc: read-out: DIZ
Pseudomonas aeruginosa [5] = assay: Antibacterial activity against Pseudomonas aeruginosa at 50 ug after 24 hrs by agar well diffusion method; details: for zone of inhibition at 50 µg/disc: read-out: DIZ
Pseudomonas aeruginosa [6] = assay: Antibacterial activity against Pseudomonas aeruginosa at 100 ug after 24 hrs by agar well diffusion method; details: for zone of inhibition at 100 µg/disc: read-out: DIZ
Klebsiella pneumoniae [7] = assay: Antibacterial activity against Klebsiella pneumoniae at 50 ug after 24 hrs by agar well diffusion method; details: for zone of inhibition at 50 µg/disc: read-out: DIZ
Klebsiella pneumoniae [8] = assay: Antibacterial activity against Klebsiella pneumoniae at 100 ug after 24 hrs by agar well diffusion method; details: for zone of inhibition at 100 µg/disc: read-out: DIZ
Aspergillus niger [9] = assay: Antifungal activity against Aspergillus niger at 50 ug after 48 hrs by agar well diffusion method; details: for zone of inhibition at 50 µg/disc: read-out: DIZ
Aspergillus niger [10] = assay: Antifungal activity against Aspergillus niger at 100 ug after 48 hrs by agar well diffusion method; details: for zone of inhibition at 100 µg/disc: read-out: DIZ
Penicillium chrysogenum [11] = assay: Antifungal activity against Penicillium chrysogenum at 50 ug after 48 hrs by agar well diffusion method; details: for zone of inhibition at 50 µg/disc: read-out: DIZ
Penicillium chrysogenum [12] = assay: Antifungal activity against Penicillium chrysogenum at 100 ug after 48 hrs by agar well diffusion method; details: for zone of inhibition at 100 µg/disc: read-out: DIZ

Structure (SMILES)	zone of inhibition at 50 µg/disc (Staphylococcus aureus [1])	zone of inhibition at 100 µg/disc (Staphylococcus aureus [2])	zone of inhibition at 50 µg/disc (Bacillus subtilis [3])	zone of inhibition at 100 µg/disc (Bacillus subtilis [4])	zone of inhibition at 50 µg/disc (Pseudomonas aeruginosa [5])	zone of inhibition at 100 µg/disc (Pseudomonas aeruginosa [6])	zone of inhibition at 50 µg/disc (Klebsiella pneumoniae [7])	zone of inhibition at 100 µg/disc (Klebsiella pneumoniae [8])	zone of inhibition at 50 µg/disc (Aspergillus niger [9])	zone of inhibition at 100 µg/disc (Aspergillus niger [10])	zone of inhibition at 50 µg/disc (Penicillium chrysogenum [11])	zone of inhibition at 100 µg/disc (Penicillium chrysogenum [12])	further results
Cc1ccc(-c2csc(NC(=O)c3c[nH]cc3-c3ccccc3)n2)cc1	16 mm	18 mm	19 mm	21 mm	13 mm	15 mm	21 mm	23 mm	18 mm	19 mm	18 mm	21 mm	–
O=C(Nc1nc(-c2ccccc2)cs1)c1c[nH]cc1-c1ccccc1	17 mm	19 mm	20 mm	22 mm	15 mm	16 mm	22 mm	24 mm	18 mm	20 mm	19 mm	22 mm	–
O=C(/C=C/c1ccccc1)Nc1nc(-c2ccc(Cl)cc2)co1	22 mm	25 mm	20 mm	24 mm	21 mm	22 mm	24 mm	27 mm	25 mm	28 mm	27 mm	30 mm	–
O=C(/C=C/c1ccccc1)Nc1nc(-c2ccccc2)cs1	21 mm	23 mm	24 mm	26 mm	17 mm	18 mm	26 mm	28 mm	21 mm	24 mm	23 mm	26 mm	–
O=C(Nc1nc(-c2ccc(Cl)cc2)cs1)c1n[nH]cc1-c1ccccc1	27 mm	29 mm	28 mm	31 mm	24 mm	26 mm	30 mm	33 mm	30 mm	32 mm	31 mm	34 mm	–
O=C(Nc1nc(-c2ccccc2)co1)C1=NNCC1c1ccccc1 (centres undefined)	–	–	–	–	–	–	–	–	–	–	–	–	diameter of the inhibition zone (DIZ) (Staphylococcus aureus [1]): inactive; diameter of the inhibition zone (DIZ) (Staphylococcus aureus [2]): inactive; diameter of the inhibition zone (DIZ) (Bacillus subtilis [3]): inactive; diameter of the inhibition zone (DIZ) (Bacillus subtilis [4]): inactive; diameter of the inhibition zone (DIZ) (Pseudomonas aeruginosa [5]): inactive; diameter of the inhibition zone (DIZ) (Pseudomonas aeruginosa [6]): inactive; diameter of the inhibition zone (DIZ) (Klebsiella pneumoniae [7]): inactive; diameter of the inhibition zone (DIZ) (Klebsiella pneumoniae [8]): inactive; diameter of the inhibition zone (DIZ) (Aspergillus niger [9]): inactive; diameter of the inhibition zone (DIZ) (Aspergillus niger [10]): inactive; diameter of the inhibition zone (DIZ) (Penicillium chrysogenum [11]): inactive; diameter of the inhibition zone (DIZ) (Penicillium chrysogenum [12]): inactive
O=C(/C=C/c1ccccc1)Nc1nc(-c2ccccc2)c[nH]1	19 mm	21 mm	22 mm	24 mm	16 mm	17 mm	24 mm	26 mm	19 mm	22 mm	21 mm	24 mm	–
